Measurements taken from patent US8791163B2 (McGill University, priority 2006, dated 2014).

How the values were obtained:
[1] = target: T1, cloned human MT1 receptors (Homo sapiens, UniProt P48039); assay: 2-[125I]iodomelatonin competition binding, human MT1 in NIH3T3 cells; conditions: calculated from IC50 by Cheng-Prusoff, mean of at least three determinations
T1 construct: expressed in transfected cells
Procedure: (§1) Membranes were incubated for 90 min at 37° C. in binding buffer (Tris/HCl 50 mM, pH 7.4). The final membrane concentration was 5-10 μg of protein per tube. […] The pKi values are the mean of at least three independent determinations performed in duplicate. To define the functional activity of the compounds of Formula (I) at the MT1 and MT2 receptor subtypes, [^35S]GTPγS binding assays in NIH3T3 cells expressing human-cloned MT1 or MT2 receptors were performed. The amount of bound [^35S]GTPγS is proportional to the level of analogue-induced G-protein activation and is related to the intrinsic activity of the compound (i.e. a compound of Formula (I)) under study. […] Nonspecific binding was assessed using non-radiolabeled GTPγS (10 μM). […] Basal stimulation is the amount of [^35S]GTPγS specifically bound in the absence of the compounds of Formula (I) and was taken as 100%. […] All of the measurements were performed in triplicate.

[2] = target: T2, cloned human MT2 receptors (Homo sapiens, UniProt P49286); assay: 2-[125I]iodomelatonin competition binding, human MT2 in NIH3T3 cells; conditions: human MT2 in NIH3T3 cells; calculated from IC50 by Cheng-Prusoff; mean of at least three determinations
T2 construct: expressed in transfected cells
T2 sequence (P49286 1-362): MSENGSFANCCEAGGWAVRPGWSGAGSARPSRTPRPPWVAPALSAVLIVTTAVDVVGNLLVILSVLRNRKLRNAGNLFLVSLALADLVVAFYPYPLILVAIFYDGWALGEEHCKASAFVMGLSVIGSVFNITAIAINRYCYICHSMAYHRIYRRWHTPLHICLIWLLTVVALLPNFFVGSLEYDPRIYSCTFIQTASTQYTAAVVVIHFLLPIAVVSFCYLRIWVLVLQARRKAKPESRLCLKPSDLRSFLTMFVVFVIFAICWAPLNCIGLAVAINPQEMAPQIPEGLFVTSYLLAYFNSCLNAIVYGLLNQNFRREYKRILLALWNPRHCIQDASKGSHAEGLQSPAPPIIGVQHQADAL
Procedure: as §1

[3] = target: T1, cloned human MT1 receptors; assay: [35S]GTPγS binding assay, NIH3T3 cells expressing human MT1; assay type: biochemical; conditions: maximal net effect relative to MLT
Procedure: as §1

[4] = target: T2, cloned human MT2 receptors; assay: [35S]GTPγS binding assay, NIH3T3 cells expressing human MT2; assay type: biochemical; conditions: maximal net effect relative to MLT
Procedure: as §1

[5] = system: Adult Sprague Dawley rats; assay: Elevated plus maze (EPM); assay type: in vivo, rat; conditions: melatonin 50 mg/kg
Procedure: The maze is comprised of two open arms (50×10 cm) and two closed arms (50×10×40 cm) that extend from a common central platform (10×10 cm). The apparatus, made of wood (painted black) was elevated to a height of 80 cm above floor level. The closed arms are located opposite one another. Behavior is recorded over a period of 5 min using a video camera positioned directly above the maze and rated by an observer blind to drug conditions. The major measure of interest is the amount of time spent in the open arms. As an index of general activity and distribution, the total number of entries into both open and closed arms was also recorded. […] In order to increase the sensitivity of this test to anxiolytic activity, tests are carried out under normal room illumination (25 W bulb).

[6] = target: high-affinity MLT receptors; conditions: read-out: Ki, high-affinity MLT receptors; cited from earlier work

T1 sequence (P48039 whole entry): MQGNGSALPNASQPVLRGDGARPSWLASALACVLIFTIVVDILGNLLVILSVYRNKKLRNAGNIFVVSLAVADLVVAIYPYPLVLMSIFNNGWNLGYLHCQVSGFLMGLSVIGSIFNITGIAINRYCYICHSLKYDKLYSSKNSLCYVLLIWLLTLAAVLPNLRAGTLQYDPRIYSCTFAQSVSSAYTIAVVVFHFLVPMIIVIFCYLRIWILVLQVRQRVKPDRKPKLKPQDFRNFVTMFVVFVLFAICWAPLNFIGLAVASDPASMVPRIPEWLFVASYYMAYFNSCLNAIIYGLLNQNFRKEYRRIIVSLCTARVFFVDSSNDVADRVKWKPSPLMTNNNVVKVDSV

| Structure (SMILES) | MT1 pKi [1] | MT2 pKi [2] | MT1 IAr ± SEM (relative intrinsic activity) [3] | MT2 IAr ± SEM (relative intrinsic activity) [4] | melting point | Head Dips [5] | Percentage of time in Closed Arms [5] | Percentage of time in Open Arms [5] | Ki [6] |
| --- | --- | --- | --- | --- | --- | --- | --- | --- | --- |
| CCCC(=O)NCCN(c1ccccc1)c1cccc(OC)c1 [5n, N-{2-[(3-Methoxyphenyl)-phenylamino]ethyl}butanamide] | 8.38 ± 0.01 | 9.98 ± 0.26 | 1.01 ± 0.04 | 0.73 ± 0.02 | 50 to 52 °C | – | – | – | – |
| COc1ccc2[nH]cc(CCNC(C)=O)c2c1 [MLT, N-acetyl-5-methoxytryptamine, reference compound] | – | – | – | – | – | 7.17 ± 0.89 | 73.33 ± 3.02 (P = 0.001) % | 26.67 ± 3.0 (P = 0.001) % | ~0.1 nM |
